What was measured:
Assay type in all cases: biochemical
[1] = tested on: known sarcosine oxidase from Bacillus sp. (comparison enzyme); experiment: KM value for sarcosine in stressing reagent a; conditions: pH 7.9, detergent-containing
Experimental: (§1) The KM values for sarcosine (phosphate buffer; TES buffer), measured at 25° C. in various stressing reagents, are 2 to 3 mmol/litre. The Vmax is about 6 U/mg. protein. The followig Table I gives, for various preparations of the enzyme according to the present invention, the KM values for sarcosine measured at 25 and at 37° C. For comparison, there are given the corresponding values for the known Bacillus enzyme.
(§2) 0.15 mole potassium phosphate or 0.1 mole TES/KOH (pH 7.9), 8.6 mmole 2,4,6-tribromo-3-hydroxybenzoic acid, 0.8 mmole 4-aminoantipyrine, 10 μmole potassium ferrocyanide, 5 mmole sodium cholate, 0.5% Lutensol ON 50, 0.2% sodium azide, 0.5 mmole Titriplex III, 2000 U lipase, 2000 U peroxidase and 10000 U ascorbate oxidase, per liter. [Lutensol ON 50 ^R is obtained from BASF AG and is n-decanol-polyglycolether having an average of 5 ethylene glycol units per molecule i.e. CH3 -(CH2)9 -(OCH2 -CH2)5 -OH. Titriplex III is the disodium salt of ethylenediaminetetracetic acid and can be obtained from Merck.]

[2] = tested on: sarcosine oxidase (E.C. 1.5.3.1) from Chainia purpurogena (DSM 43 156), pure enzyme; experiment: KM value for sarcosine in stressing reagent a; conditions: pH 7.9, detergent-containing
Experimental: as §1, §2

[3] = tested on: sarcosine oxidase from Chainia purpurogena, crude extract supernatant; experiment: KM value for sarcosine in stressing reagent a; conditions: 37 °C, pH 7.9, detergent-containing
Experimental: as §1, §2

[4] = tested on: sarcosine oxidase from Streptomyces flocculus (DSM 40 327), crude extract supernatant; experiment: KM value for sarcosine in stressing reagent a; conditions: 37 °C, TES buffer, pH 7.9, detergent-containing
Experimental: as §1, §2

[5] = tested on: sarcosine oxidase according to the present invention, obtainable from Streptomycetaceae; experiment: KM and Vmax for sarcosine; conditions: substrate sarcosine
Experimental: In contradistinction thereto, the KM values of the known sarcosine oxidases which are sufficiently stable for these determinations are, under these conditions, abou 16 to 20 mmol/liter.
as §1

CNCC(=O)O [sarcosine]
Km ([1]; 25 °C, TES buffer): 20 mM
Km ([1]; 25 °C, phosphate buffer): 16 mM
Km ([1]; 37 °C, TES buffer): 20 mM
Km ([1]; 37 °C, phosphate buffer): 18 mM
Km ([2]; 25 °C, TES buffer): 2.8 mM
Km ([2]; 25 °C, phosphate buffer): 2 mM
Km ([2]; 37 °C, TES buffer): 3 mM
Km ([2]; 37 °C, phosphate buffer): 3.5 mM
Km ([3]; TES buffer): 3 mM
Km ([3]; phosphate buffer): 3 mM
Km [4]: 3.5 mM
Vmax [5]: about 6 U/mg. protein

Source: patent US4845029A, “Method for the determination of sarcosine creatine or creatinine” (Boehringer Mannheim GmbH, priority 1985, dated 1989)
